Measured values published in PubChem BioAssay AID1963971 (Molecular Pharmacology Branch, DTP, NCI, 2024).
pIC50: −log10 of the molar value.

Test system: 953936-095-R-J2-PDC spheroids with HUVEC/MSC, viability
Test: Anticancer human tumor 953936-095-R-J2-PDC patient-derived cervical squamous cell carcinoma cell line growth inhibition [PI3K]
Conditions: for pIC50: curve of first compound; for viability, T/C: stronger effect = lower value
How it was run: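 Tumor cells grown as multi-cell spheroids with HUVEC endothelial cells and MSC fibroblast-like stroma were treated with targeted agents combined with inavolisib, alpelisib, duvelisib or copanlisib. Doses fell in half-log steps from near clinical Cmax, else from 10 microM. Viability was measured.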

[1] = second compound 0.0316 µM, first compound 0.0316 µM
[2] = second compound 0.0316 µM, first compound 0.1 µM
[3] = second compound 0.0316 µM, first compound 0.316 µM
[4] = second compound 0.0316 µM, first compound 1 µM
[5] = second compound 0.1 µM, first compound 0.0316 µM
[6] = second compound 0.1 µM, first compound 0.1 µM
[7] = second compound 0.1 µM, first compound 0.316 µM
[8] = second compound 0.1 µM, first compound 1 µM
[9] = second compound 0.316 µM, first compound 0.0316 µM
[10] = second compound 0.316 µM, first compound 0.1 µM
[11] = second compound 0.316 µM, first compound 0.316 µM
[12] = second compound 0.316 µM, first compound 1 µM
[13] = second compound 1 µM, first compound 0.0316 µM
[14] = second compound 1 µM, first compound 0.1 µM
[15] = second compound 1 µM, first compound 0.316 µM
[16] = second compound 1 µM, first compound 1 µM
[17] = second compound 3.16 µM, first compound 0.0316 µM
[18] = second compound 3.16 µM, first compound 0.1 µM
[19] = second compound 3.16 µM, first compound 0.316 µM
[20] = second compound 3.16 µM, first compound 1 µM
[21] = second compound 10 µM, first compound 0.0316 µM
[22] = second compound 10 µM, first compound 0.1 µM
[23] = second compound 10 µM, first compound 0.316 µM
[24] = second compound 10 µM, first compound 1 µM
[25] = second compound 0.0316 µM, first compound 0.00316 µM
[26] = second compound 0.0316 µM, first compound 0.01 µM
[27] = second compound 0.1 µM, first compound 0.00316 µM
[28] = second compound 0.1 µM, first compound 0.01 µM
[29] = second compound 0.316 µM, first compound 0.00316 µM
[30] = second compound 0.316 µM, first compound 0.01 µM
[31] = second compound 1 µM, first compound 0.00316 µM
[32] = second compound 1 µM, first compound 0.01 µM
[33] = second compound 3.16 µM, first compound 0.00316 µM
[34] = second compound 3.16 µM, first compound 0.01 µM
[35] = second compound 10 µM, first compound 0.00316 µM
[36] = second compound 10 µM, first compound 0.01 µM
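Note: spheroids exposed to compounds for seven days before read-out.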

Work on `CC(C)NCC(C(=O)N1CCN(c2ncnc3c2C(C)CC3O)CC1)c1ccc(Cl)cc1` (stereo unspecified) + Cc1nc(NC(=O)N2CCCC2C(N)=O)sc1-c1ccnc(C(C)(C)C(F)(F)F)c1 yielded a pIC50 (second compound 0.0316 µM) of 6.08, a pIC50 (second compound 0.1 µM) of 6.15 and a pIC50 (second compound 0.316 µM) of 6.33. It also gave a pIC50 (second compound 1 µM) of over 7.50, a pIC50 (second compound 3.16 µM) of over 7.50 and a pIC50 (second compound 10 µM) of over 7.50. It also gave a viability, T/C [1] of 88.8%, a viability, T/C [2] of 89.2% and a viability, T/C [3] of 75.7%. It also gave a viability, T/C [4] of 44.1%, a viability, T/C (second compound 0.0316 µM, first compound 3.16 µM) of 23.3% and a viability, T/C (second compound 0.0316 µM, first compound 10 µM) of 14.3%. It also gave a viability, T/C [5] of 82.6%, a viability, T/C [6] of 76.7% and a viability, T/C [7] of 67.2%. The viability, T/C [8] was 42.4%, the viability, T/C (second compound 0.1 µM, first compound 3.16 µM) was 22.4% and the viability, T/C (second compound 0.1 µM, first compound 10 µM) was 12.2%. It also gave a viability, T/C [9] of 64.6%, a viability, T/C [10] of 62.4% and a viability, T/C [11] of 55.6%. For the same compound, the viability, T/C [12] was 38.2%, the viability, T/C (second compound 0.316 µM, first compound 3.16 µM) was 17.4% and the viability, T/C (second compound 0.316 µM, first compound 10 µM) was 11.6%. For the same compound, the viability, T/C [13] was 48.7%, the viability, T/C [14] was 42.2% and the viability, T/C [15] was 39.3%. For the same compound, the viability, T/C [16] was 28.3%, the viability, T/C (second compound 1 µM, first compound 3.16 µM) was 16.2% and the viability, T/C (second compound 1 µM, first compound 10 µM) was 7.67%. It also gave a viability, T/C [17] of 27.6%, a viability, T/C [18] of 25.6% and a viability, T/C [19] of 24.5%. It also gave a viability, T/C [20] of 18%, a viability, T/C (second compound 3.16 µM, first compound 3.16 µM) of 11.3% and a viability, T/C (second compound 3.16 µM, first compound 10 µM) of 5.35%. It also gave a viability, T/C [21] of 11.6%, a viability, T/C [22] of 11.2% and a viability, T/C [23] of 10.9%. For the same compound, the viability, T/C [24] was 8.17%, the viability, T/C (second compound 10 µM, first compound 3.16 µM) was 5.5% and the viability, T/C (second compound 10 µM, first compound 10 µM) was 2.61%.

`CCN1CCN(Cc2ccc(Nc3ncc(F)c(-c4cc(F)c5nc(C)n(C(C)C)c5c4)n3)nc2)CC1` + Cc1nc(NC(=O)N2CCCC2C(N)=O)sc1-c1ccnc(C(C)(C)C(F)(F)F)c1 gave a pIC50 (second compound 0.0316 µM) of under 6.00, a pIC50 (second compound 0.1 µM) of under 6.00 and a pIC50 (second compound 0.316 µM) of under 6.00. It also gave a pIC50 (second compound 1 µM) of over 8.50, a pIC50 (second compound 3.16 µM) of over 8.50 and a pIC50 (second compound 10 µM) of over 8.50. It also gave a viability, T/C [25] of 89.8%, a viability, T/C [26] of 93.8% and a viability, T/C [1] of 88%. The viability, T/C [2] was 88.6%, the viability, T/C [3] was 87.1% and the viability, T/C [4] was 75.5%. It also gave a viability, T/C [27] of 84.8%, a viability, T/C [28] of 83.4% and a viability, T/C [5] of 83.4%. The viability, T/C [6] was 78.3%, the viability, T/C [7] was 76% and the viability, T/C [8] was 73.4%. The viability, T/C [29] was 66.3%, the viability, T/C [30] was 63.4% and the viability, T/C [9] was 65.9%. For the same compound, the viability, T/C [10] was 55.8%, the viability, T/C [11] was 58.6% and the viability, T/C [12] was 53%. The viability, T/C [31] was 47.6%, the viability, T/C [32] was 46% and the viability, T/C [13] was 43.7%. The viability, T/C [14] was 41.8%, the viability, T/C [15] was 38.3% and the viability, T/C [16] was 36.7%. The viability, T/C [33] was 26.6%, the viability, T/C [34] was 26.3% and the viability, T/C [17] was 24.4%. For the same compound, the viability, T/C [18] was 23.6%, the viability, T/C [19] was 23.3% and the viability, T/C [20] was 22.2%. For the same compound, the viability, T/C [35] was 10.8%, the viability, T/C [36] was 11.2% and the viability, T/C [21] was 10.5%. The viability, T/C [22] was 9.34%, the viability, T/C [23] was 9.59% and the viability, T/C [24] was 11.1%.

Work on `Cn1ncnc1[C@H]1c2n[nH]c(=O)c3cc(F)cc(c23)N[C@@H]1c1ccc(F)cc1` + Cc1nc(NC(=O)N2CCCC2C(N)=O)sc1-c1ccnc(C(C)(C)C(F)(F)F)c1 yielded a pIC50 (second compound 0.0316 µM) of under 7.00, a pIC50 (second compound 0.1 µM) of under 7.00 and a pIC50 (second compound 0.316 µM) of under 7.00. For the same compound, the pIC50 (second compound 1 µM) was over 9.50, the pIC50 (second compound 3.16 µM) was over 9.50 and the pIC50 (second compound 10 µM) was over 9.50. It also gave a viability, T/C (second compound 0.0316 µM, first compound 0.000316 µM) of 91.5%, a viability, T/C (second compound 0.0316 µM, first compound 0.001 µM) of 94.8% and a viability, T/C [25] of 99.5%. The viability, T/C [26] was 90.9%, the viability, T/C [1] was 94.6% and the viability, T/C [2] was 95.7%. For the same compound, the viability, T/C (second compound 0.1 µM, first compound 0.000316 µM) was 86.6%, the viability, T/C (second compound 0.1 µM, first compound 0.001 µM) was 79.2% and the viability, T/C [27] was 83.7%. The viability, T/C [28] was 80.9%, the viability, T/C [5] was 83.3% and the viability, T/C [6] was 81.5%. It also gave a viability, T/C (second compound 0.316 µM, first compound 0.000316 µM) of 63.3%, a viability, T/C (second compound 0.316 µM, first compound 0.001 µM) of 63.9% and a viability, T/C [29] of 62.8%. The viability, T/C [30] was 62.5%, the viability, T/C [9] was 66.6% and the viability, T/C [10] was 58.2%. The viability, T/C (second compound 1 µM, first compound 0.000316 µM) was 45.1%, the viability, T/C (second compound 1 µM, first compound 0.001 µM) was 48.6% and the viability, T/C [31] was 44.9%. The viability, T/C [32] was 43.8%, the viability, T/C [13] was 43.2% and the viability, T/C [14] was 39.6%. For the same compound, the viability, T/C (second compound 3.16 µM, first compound 0.000316 µM) was 27%, the viability, T/C (second compound 3.16 µM, first compound 0.001 µM) was 26.2% and the viability, T/C [33] was 26.4%. It also gave a viability, T/C [34] of 26.3%, a viability, T/C [17] of 26.5% and a viability, T/C [18] of 25.5%. The viability, T/C (second compound 10 µM, first compound 0.000316 µM) was 11.4%, the viability, T/C (second compound 10 µM, first compound 0.001 µM) was 10.4% and the viability, T/C [35] was 10.1%. It also gave a viability, T/C [36] of 11.6%, a viability, T/C [21] of 12.5% and a viability, T/C [22] of 10.9%.
